Laboratory results: the NIST ThermoML archive (doi:10.1016/j.fluid.2008.09.004)

Columns and labels:
[1] = xn = mol fraction of the nth substance listed; settings: 101 kPa, Liquid, Vibrating tube method
[2] = molar heat capacity at constant pressure; xn = mol fraction of the nth substance listed; settings: 101 kPa, Liquid, Small sample (50 mg) DSC
[3] = excess molar enthalpy (molar enthalpy of mixing); xn = mol fraction of the nth substance listed; settings: 303.15 K, 101 kPa, Liquid, Calvet calorimetry

CCCCn1cc[n+](C)c1.F[B-](F)(F)F [1-butyl-3-methylimidazolium tetrafluoroborate] + CCO
Settings | mass density, [1] [kg/m3] | molar heat capacity at constant pressure, [2] [J/K/mol]
293.15 K, x1 = 0.0987 | 903 | 150.5
293.15 K, x1 = 0.1923 | 976.5 | 174.4
293.15 K, x1 = 0.3004 | 1037.8 | 197.8
293.15 K, x1 = 0.3885 | 1075.8 | 219.8
293.15 K, x1 = 0.4865 | 1108.8 | 240.1
293.15 K, x1 = 0.573 | 1132.8 | 258.3
293.15 K, x1 = 0.6738 | 1155.4 | 281.8
293.15 K, x1 = 0.7531 | 1170.9 | 300.8
293.15 K, x1 = 0.8821 | 1191.8 | 330.9
298.15 K, x1 = 0.0987 | 898.9 | 150
298.15 K, x1 = 0.1923 | 972.5 | 173.6
298.15 K, x1 = 0.3004 | 1033.9 | 198.8
298.15 K, x1 = 0.3885 | 1071.9 | 219.6
298.15 K, x1 = 0.4865 | 1105 | 241.2
298.15 K, x1 = 0.573 | 1129.1 | 259.7
298.15 K, x1 = 0.6738 | 1151.7 | 283.5
298.15 K, x1 = 0.7531 | 1167.2 | 302.6
298.15 K, x1 = 0.8821 | 1188.2 | 333
303.15 K, x1 = 0.0987 | 894.8 | 149.9
303.15 K, x1 = 0.1923 | 968.5 | 173.5
303.15 K, x1 = 0.3004 | 1030 | 199.7
303.15 K, x1 = 0.3885 | 1068 | 219.9
303.15 K, x1 = 0.4865 | 1101.2 | 242.3
303.15 K, x1 = 0.573 | 1125.3 | 261.1
303.15 K, x1 = 0.6738 | 1148 | 285.2
303.15 K, x1 = 0.7531 | 1163.5 | 304.3
303.15 K, x1 = 0.8821 | 1184.6 | 335.1
308.15 K, x1 = 0.0987 | 890.8 | 150.3
308.15 K, x1 = 0.1923 | 964.6 | 174.2
308.15 K, x1 = 0.3004 | 1026.1 | 200.6
308.15 K, x1 = 0.3885 | 1064.2 | 220.6
308.15 K, x1 = 0.4865 | 1097.4 | 243.4
308.15 K, x1 = 0.573 | 1121.6 | 262.4
308.15 K, x1 = 0.6738 | 1144.4 | 286.9
308.15 K, x1 = 0.7531 | 1159.9 | 306.2
308.15 K, x1 = 0.8821 | 1181 | 337.2
313.15 K, x1 = 0.0987 | 886.6 | 151.1
313.15 K, x1 = 0.1923 | 960.5 | 175.6
313.15 K, x1 = 0.3004 | 1022.2 | 201.4
313.15 K, x1 = 0.3885 | 1060.4 | 221.7
313.15 K, x1 = 0.4865 | 1093.6 | 244.4
313.15 K, x1 = 0.573 | 1117.9 | 263.7
313.15 K, x1 = 0.6738 | 1140.7 | 288.5
313.15 K, x1 = 0.7531 | 1156.3 | 308
313.15 K, x1 = 0.8821 | 1177.4 | 339.3
318.15 K, x1 = 0.0987 | 882.4 | 152.4
318.15 K, x1 = 0.1923 | 956.5 | 177.8
318.15 K, x1 = 0.3004 | 1018.2 | 202.3
318.15 K, x1 = 0.3885 | 1056.5 | 223.3
318.15 K, x1 = 0.4865 | 1089.8 | 245.6
318.15 K, x1 = 0.573 | 1114.2 | 265.1
318.15 K, x1 = 0.6738 | 1137.1 | 290.1
318.15 K, x1 = 0.7531 | 1152.7 | 309.9
318.15 K, x1 = 0.8821 | 1173.8 | 341.4

CCCCn1cc[n+](C)c1.O=S(=O)([O-])C(F)(F)F [1-butyl-3-methylimidazolium trifluoromethanesulfonate] + CCO
Settings | mass density, [1] [kg/m3] | molar heat capacity at constant pressure, [2] [J/K/mol]
293.15 K, x1 = 0.0522 | 881 | 128.2
293.15 K, x1 = 0.0982 | 944.5 | 143.3
293.15 K, x1 = 0.1976 | 1041.9 | 175.3
293.15 K, x1 = 0.2999 | 1111.4 | 207.9
293.15 K, x1 = 0.3996 | 1160.3 | 237.9
293.15 K, x1 = 0.4973 | 1196.9 | 267.2
293.15 K, x1 = 0.5923 | 1225.3 | 295.7
293.15 K, x1 = 0.6898 | 1249.1 | 326.5
293.15 K, x1 = 0.7868 | 1268.5 | 355.5
293.15 K, x1 = 0.8756 | 1283.7 | 382.4
293.15 K, x1 = 0.9283 | 1291.6 | 399
298.15 K, x1 = 0.0522 | 876.7 | 130
298.15 K, x1 = 0.0982 | 940.2 | 144.9
298.15 K, x1 = 0.1976 | 1037.7 | 176.8
298.15 K, x1 = 0.2999 | 1107.2 | 209.2
298.15 K, x1 = 0.3996 | 1156.1 | 239.4
298.15 K, x1 = 0.4973 | 1192.8 | 268.9
298.15 K, x1 = 0.5923 | 1221.2 | 297.3
298.15 K, x1 = 0.6898 | 1245 | 328.2
298.15 K, x1 = 0.7868 | 1264.5 | 357.6
298.15 K, x1 = 0.8756 | 1279.7 | 384.5
298.15 K, x1 = 0.9283 | 1287.6 | 401.2
303.15 K, x1 = 0.0522 | 872.5 | 131.8
303.15 K, x1 = 0.0982 | 935.9 | 146.4
303.15 K, x1 = 0.1976 | 1033.4 | 178.3
303.15 K, x1 = 0.2999 | 1103 | 210.6
303.15 K, x1 = 0.3996 | 1152 | 240.9
303.15 K, x1 = 0.4973 | 1188.7 | 270.7
303.15 K, x1 = 0.5923 | 1217.2 | 299
303.15 K, x1 = 0.6898 | 1241 | 330
303.15 K, x1 = 0.7868 | 1260.5 | 359.9
303.15 K, x1 = 0.8756 | 1275.7 | 386.8
303.15 K, x1 = 0.9283 | 1283.7 | 403.7
308.15 K, x1 = 0.0522 | 868.2 | 133.8
308.15 K, x1 = 0.0982 | 931.7 | 148.2
308.15 K, x1 = 0.1976 | 1029.2 | 180
308.15 K, x1 = 0.2999 | 1098.8 | 212.1
308.15 K, x1 = 0.3996 | 1147.9 | 242.6
308.15 K, x1 = 0.4973 | 1184.7 | 272.6
308.15 K, x1 = 0.5923 | 1213.1 | 301
308.15 K, x1 = 0.6898 | 1237 | 332
308.15 K, x1 = 0.7868 | 1256.5 | 362.3
308.15 K, x1 = 0.8756 | 1271.7 | 389.3
308.15 K, x1 = 0.9283 | 1279.7 | 406.3
313.15 K, x1 = 0.0522 | 863.9 | 135.8
313.15 K, x1 = 0.0982 | 927.4 | 150
313.15 K, x1 = 0.1976 | 1025 | 181.7
313.15 K, x1 = 0.2999 | 1094.7 | 213.7
313.15 K, x1 = 0.3996 | 1143.8 | 244.3
313.15 K, x1 = 0.4973 | 1180.6 | 274.6
313.15 K, x1 = 0.5923 | 1209.1 | 303
313.15 K, x1 = 0.6898 | 1233 | 334.1
313.15 K, x1 = 0.7868 | 1252.5 | 364.8
313.15 K, x1 = 0.8756 | 1267.7 | 391.9
313.15 K, x1 = 0.9283 | 1275.8 | 409
318.15 K, x1 = 0.0522 | 859.5 | 138
318.15 K, x1 = 0.0982 | 923 | 152
318.15 K, x1 = 0.1976 | 1020.7 | 183.6
318.15 K, x1 = 0.2999 | 1090.5 | 215.4
318.15 K, x1 = 0.3996 | 1139.6 | 246.2
318.15 K, x1 = 0.4973 | 1176.5 | 276.8
318.15 K, x1 = 0.5923 | 1205 | 305.1
318.15 K, x1 = 0.6898 | 1229 | 336.4
318.15 K, x1 = 0.7868 | 1248.5 | 367.5
318.15 K, x1 = 0.8756 | 1263.8 | 394.6
318.15 K, x1 = 0.9283 | 1271.8 | 411.9

[3]
Settings | excess molar enthalpy [kcal/mol]
x1 = 0.0987 | 0.23
x1 = 0.2029 | 0.363
x1 = 0.2948 | 0.416
x1 = 0.4016 | 0.424
x1 = 0.4928 | 0.406
x1 = 0.5952 | 0.353
x1 = 0.6832 | 0.291
x1 = 0.8026 | 0.199
x1 = 0.8759 | 0.129
